Laboratory results reported in patent US20220411419A1, “SMALL MOLECULE MODULATORS OF MHC-I” (RetroVirox, Inc., priority 2018, published 2022).

How the values were obtained:
[1] = system: downmodulation of MHC-I molecules expressed on the surface of HIV infected SupT1 cells; experiment: cells; details: Human immunodeficiency virus 1, SUP-T1, read-out: EC50 for inhibition of MHC-I downmodulation utilizing the R1 parameter
in vitro = details: human, uninfected SupT1 cells

SMILES	EC50 [1] [µM]	CC50 at 48 h (in vitro) [µM]
CN(C(=O)CCc1cccc2c1OC(C)(C)C2)c1nc2c(s1)CCCC2 [Compound 106, 3-(2,2-Dimethyl-2,3-dihydrobenzofuran-7-yl)-N-methyl-N-(4,5,6,7-tetrahydrobenzo[d]thiazol-2-yl)propanamide]	0.42	> 125
CC1(C)Cc2cccc(CCC(=O)Nc3nc4c(F)cccc4s3)c2O1 [Compound 107, 3-(2,2-Dimethyl-2,3-dihydrobenzofuran-7-yl)-N-(4-fluorobenzo[d]thiazol-2-yl)propanamide]	0.37	> 100
COc1ccccc1CCC(=O)N(C)c1nc2c(s1)CCCC2 [Compound 110, 3-(2-Methoxyphenyl)-N-methyl-N-(4,5,6,7-tetrahydrobenzo[d]thiazol-2-yl) propanamide]	4.1	> 125
CN(C(=O)COc1cccc2[nH]ccc12)c1nc2c(s1)CCCC2 [Compound 111, 2-((1H-Indol-4-yl)oxy)-N-methyl-N-(4,5,6,7-tetrahydrobenzo[d]thiazol-2-yl) acetamide]	0.18	> 125
CCOc1ccccc1OCC(=O)N(C)c1nc2c(s1)CCCC2 [Compound 112, 2-(2-Ethoxyphenoxy)-N-methyl-N-(4,5,6,7-tetrahydrobenzo[d]thiazol-2-yl) acetamide]	0.22	> 125
Cc1cccc(OCC(=O)N(C)c2nc3c(s2)CCCC3)c1F [Compound 113, 2-(2-Fluoro-3-methylphenoxy)-N-methyl-N-(4,5,6,7-tetrahydrobenzo[d]thiazol-2-yl)acetamide]	0.55	> 125
Cc1cccc(OCC(=O)N(C)c2nc3c(s2)CCCC3)c1C [Compound 114, 2-(2,3-Dimethylphenoxy)-N-methyl-N-(4,5,6,7-tetrahydrobenzo[d]thiazol-2-yl)acetamide]	1.2	> 125
COc1cc(C)ccc1OCC(=O)N(C)c1nc2c(s1)CCCC2 [Compound 115, 2-(2-Methoxy-4-methylphenoxy)-N-methyl-N-(4,5,6,7-tetrahydrobenzo[d]thiazol-2-yl)acetamide]	1.8	> 125
COc1cccc(C)c1OCC(=O)N(C)c1nc2c(s1)CCCC2 [Compound 116, 2-(2-Methoxy-6-methylphenoxy)-N-methyl-N-(4,5,6,7-tetrahydrobenzo[d]thiazol-2-yl)acetamide]	0.2	> 125
Cc1cccc(OCC(=O)N(C)c2nc3c(s2)CCCC3)c1Br [Compound 117, 2-(2-Bromo-3-methylphenoxy)-N-methyl-N-(4,5,6,7-tetrahydrobenzo[d]thiazol-2-yl)acetamide]	0.95	> 125
COc1c(Br)cccc1OCC(=O)N(C)c1nc2c(s1)CCCC2 [Compound 118, 2-(3-Bromo-2-methoxyphenoxy)-N-methyl-N-(4,5,6,7-tetrahydrobenzo[d]thiazol-2-yl)acetamide]	2.1	> 125
COc1c(C)cccc1OCC(=O)N(C)c1nc2c(s1)CCCC2 [Compound 119, 2-(2-Methoxy-3-methylphenoxy)-N-methyl-N-(4,5,6,7-tetrahydrobenzo[d]thiazol-2-yl)acetamide]	0.78	> 125
COc1c(OCC(=O)N(C)c2nc3c(s2)CCCC3)cccc1C1CC1 [Compound 120, 2-(3-Cyclopropyl-2-methoxyphenoxy)-N-methyl-N-(4,5,6,7-tetrahydrobenzo [d]thiazol-2-yl)acetamide]	4.8	> 125
COc1cccc(OCC(=O)N(C)c2nc3c(s2)CCCC3)c1 [Compound 121, 2-(3-Methoxyphenoxy)-N-methyl-N-(4,5,6,7-tetrahydrobenzo[d]thiazol-2-yl) acetamide]	3.9	> 125
COc1ccc(C)cc1OCC(=O)N(C)c1nc2c(s1)CCCC2 [Compound 122, 2-(2-Methoxy-5-methylphenoxy)-N-methyl-N-(4,5,6,7-tetrahydrobenzo[d]thiazol-2-yl)acetamide]	5	> 125
Cc1cc2c(OCC(=O)N(C)c3nc4c(s3)CCCC4)cccc2[nH]1 [Compound 123, N-Methyl-2-((2-methyl-1H-indol-4-yl)oxy)-N-(4,5,6,7-tetrahydrobenzo[d]thiazol-2-yl)acetamide]	0.013	> 125
COc1cccc(F)c1OCC(=O)N(C)c1nc2c(s1)CCCC2 [Compound 124, 2-(2-Fluoro-6-methoxyphenoxy)-N-methyl-N-(4,5,6,7-tetrahydrobenzo[d]thiazol-2-yl)acetamide]	0.26	> 125
Cc1ccccc1OCC(=O)N(C)c1nc2c(s1)CCCC2 [Compound 125, N-Methyl-N-(4,5,6,7-tetrahydrobenzo[d]thiazol-2-yl)-2-(o-tolyloxy) acetamide]	0.88	> 125
CN(C(=O)COc1cccc2c1OCCO2)c1nc2c(s1)CCCC2 [Compound 126, 2-((2,3-Dihydrobenzo[b][1,4]dioxin-5-yl)oxy)-N-methyl-N-(4,5,6,7-tetrahydrobenzo[d]thiazol-2-yl)acetamide]	0.8	> 125

SMILES	EC50 [1] [µM]	CC50 at 48 h (in vitro) [µM]
COc1ccc(OCC(=O)N(C)c2nc3c(s2)CCCC3)cc1 [Compound 127, 2-(4-Methoxyphenoxy)-N-methyl-N-(4,5,6,7-tetrahydrobenzo[d]thiazol-2-yl) acetamide]	> 25	> 125
CN(C(=O)COc1cccc2cc[nH]c12)c1nc2c(s1)CCCC2 [Compound 128, 2-((1H-Indol-7-yl)oxy)-N-methyl-N-(4,5,6,7-tetrahydrobenzo[d]thiazol-2-yl) acetamide]	> 25	> 125
Cc1c(Cl)cccc1OCC(=O)N(C)c1nc2c(s1)CCCC2 [Compound 129, 2-(3-Chloro-2-methylphenoxy)-N-methyl-N-(4,5,6,7-tetrahydrobenzo[d]thiazol-2-yl)acetamide]	> 25	> 125
COc1ccccc1OCC(=O)N(C)c1nc2c(s1)CCCC2 [Compound 130, 2-(2-Methoxyphenoxy)-N-methyl-N-(4,5,6,7-tetrahydrobenzo[d]thiazol-2-yl) acetamide]	0.38	> 125
COc1cccc(OC)c1OCC(=O)N(C)c1nc2c(s1)CCCC2 [Compound 131, 2-(2,6-Dimethoxyphenoxy)-N-methyl-N-(4,5,6,7-tetrahydrobenzo[d]thiazol-2-yl)acetamide]	2.6	~125
O=C(COc1cccc2[nH]ccc12)Nc1nc2c(s1)CCCC2 [Compound 132, 2-((1H-Indol-4-yl)oxy)-N-(4,5,6,7-tetrahydrobenzo[d]thiazol-2-yl)acetamide]	0.081	> 125
Cc1csc(NC(=O)COc2cccc3[nH]ccc23)n1 [Compound 133, 2-((1H-Indol-4-yl)oxy)-N-(4-methylthiazol-2-yl)acetamide]	1.5	> 100
Cc1csc(NC(=O)COc2cccc3cc[nH]c23)n1 [Compound 134, 2-((1H-Indol-7-yl)oxy)-N-(4-methylthiazol-2-yl)acetamide]	11	> 100
O=C(COc1cccc2c1CCN2)Nc1nc2c(s1)CCCC2 [Compound 135, 2-(Indolin-4-yloxy)-N-(4,5,6,7-tetrahydrobenzo[d]thiazol-2-yl)acetamide]	0.088	> 125
Cc1ccnc(C)c1OCC(=O)N(C)c1nc2c(s1)CCCC2 [Compound 136, 2-((2,4-Dimethylpyridin-3-yl)oxy)-N-methyl-N-(4,5,6,7-tetrahydrobenzo[d]thiazol-2-yl)acetamide]	12	124
Cc1ncccc1OCC(=O)N(C)c1nc2c(s1)CCCC2 [Compound 137, N-Methyl-2-((2-methylpyridin-3-yl)oxy)-N-(4,5,6,7-tetrahydrobenzo[d]thiazol-2-yl)acetamide]	> 25	12
Cc1ccncc1OCC(=O)N(C)c1nc2c(s1)CCCC2 [Compound 138, N-Methyl-2-((4-methylpyridin-3-yl)oxy)-N-(4,5,6,7-tetrahydrobenzo[d]thiazol-2-yl)acetamide]	> 25	> 125
Cc1csc(NC(=O)COc2ccccc2OC(C)C)n1 [Compound 140, 2-(2-isopropoxyphenoxy)-N-(4-methylthiazol-2-yl)acetamide]	14	> 125
Cc1csc(NC(=O)COc2ccccc2OCc2ccccc2)n1 [Compound 141, 2-(2-(Benzyloxy)phenoxy)-N-(4-methylthiazol-2-yl)acetamide]	1.84	> 100
Cc1csc(N(Cc2ccccc2)C(=O)COc2ccccc2OCc2ccccc2)n1 [Compound 142, N-Benzyl-2-(2-(benzyloxy)phenoxy)-N-(4-methylthiazol-2-yl)acetamide]	5.5	> 125
CC1(C)Cc2cccc(OCC(=O)Nc3nc4ccccc4s3)c2O1 [Compound 143, N-(benzo[d]thiazol-2-yl)-2-((2,2-dimethyl-2,3-dihydrobenzofuran-7-yl)oxy)acetamide]	0.41	> 100
CN(C(=O)COc1cccc2c1OC(C)(C)C2)c1nc2ccccc2s1 [Compound 144, N-(benzo[d]thiazol-2-yl)-2-((2,2-dimethyl-2,3-dihydrobenzofuran-7-yl)oxy)-N-methylacetamide]	29	> 90
CC1(C)Cc2cccc(OCC(=O)Nc3nc4c(Cl)cccc4s3)c2O1 [Compound 145, N-(4-Chlorobenzo[d]thiazol-2-yl)-2-((2,2-dimethyl-2,3-dihydrobenzofuran-7-yl)oxy)acetamide]	0.091	> 90
COc1cccc2sc(NC(=O)COc3cccc4c3OC(C)(C)C4)nc12 [Compound 146, 2-((2,2-Dimethyl-2,3-dihydrobenzofuran-7-yl)oxy)-N-(4-methoxybenzo[d]thiazol-2-yl)acetamide]	1.69	> 10
